Test results taken from patent publication US10118954B2, “Apelin analogues” (University of Ulster, priority 2014, dated 2018).

System: high fat fed NIH Swiss mice
Test: 28 day long-term study of fatty acid apelin analogues, once daily i.p. administration
Format: in vivo
Source text: NIH Swiss mice (Harlan UK Ltd., Blackthorne, UK) were derived from a nucleus colony obtained from the National Institute of Health, Bethesda, Md., USA. One group of mice were maintained on a standard rodent diet (10% fat, 30% protein, 60% carbohydrate; percent of total energy 12.99 kJ/g, Trouw Nutrition, Cheshire, UK) and used as a model of normal glycaemia. Other NIH Swiss mice were maintained on a high fat diet (45% fat, 20% protein, 35% carbohydrate; percent of total energy 26.15 kJ/g; Dietex, Essex, UK) from 8 weeks of age for 150 days to produce a model of diet induced obesity-diabetes. […] All mice were housed in an air-conditioned room maintained at 22±2° C. with a 12 h light: 12 h dark cycle (08:00-20:00 h), were singly caged, and selected for experimental groups according to body weight and non-fasted blood glucose. Drinking water and diet were freely available. All animal studies were performed in accordance with the UK Animals (Scientific Procedures) Act 1986.
For another 28 day long-term study of selected fatty acid apelin analogues administered once daily, normal control NIH Swiss (n=8) and high-fat fed NIH Swiss (n=8) were grouped and received once daily i.p. injections of saline vehicle (0.9% NaCl (w/v)) at 17:00 h over a 4 day run-in period. Following the run-in period, normal control (n=8) and high-fat fed mice (n=8) received once daily (17:00 h) i.p. administration of saline vehicle (0.9% NaCl (w/v)) for 28 days. Additional groups of high-fat fed mice (n=8) received once daily i.p. injections of (Lys^8gluPal)apelin-13-amide, pGlu(Lys^8gluPal)apelin-13-amide or liraglutide (each at 25 nmol/kg bw) over a 28 day treatment period.
Food intake, body weight, blood glucose and plasma insulin were monitored at intervals of 2-3 days throughout the run-in and 28 day treatment period. Blood samples for glucose and plasma insulin measurement were collected at intervals throughout the study from the cut tail vein of conscious mice. Following the 28 day treatment period, oral, i.p. and meal test glucose tolerance ([…].), and insulin sensitivity (25 U/kg bw) tests were performed. Glucose was measured using an Ascensia Contour meter and blood was collected and processed for plasma insulin analysis by radioimmunoassay. Body weight and fat mass was also assessed using the PIXImus DEXA scanner whilst energy expenditure, intake, food intake and feeding bouts were assessed using the CLAMS metabolic chamber. HbA1c was analysed post 28 days using Bayer A1C Now^+ Multi Test meter. Lipid profile test was obtained by using the iLab analyser. Cholesterol, triglyceride and HDL-cholesterol levels were measured, in plasma (3 μl), using the iLab analyser. LDL-cholesterol levels were obtained using the Friedewald equation=total cholesterol−HDL−(triglycerides/3).

[1] = once daily 25 nmol/kg bw, 28 days

CCCCCCCCCCCCCCCC(=O)N[C@@H](CCC(=O)NCCCC[C@H](NC(=O)[C@H](Cc1c[nH]cn1)NC(=O)[C@H](CO)NC(=O)[C@H](CC(C)C)NC(=O)[C@H](CCCNC(=N)N)NC(=O)[C@@H]1CCCN1C(=O)[C@H](CCCNC(=N)N)NC(=O)[C@@H]1CCC(=O)N1)C(=O)NCC(=O)N1CCC[C@H]1C(=O)N[C@@H](CCSC)C(=O)N1CCC[C@H]1C(=O)N[C@@H](Cc1ccccc1)C(N)=O)C(=O)O [pGlu(Lys^8GluPAL)apelin-13-amide]
HbA1c levels (after 28 days treatment): significantly reduced | Percentage fat mass (after 28 days, DEXA analysis): 30.1% | Insulin sensitivity (after 28 days, insulin 25 U/kg bw): significantly improved | Glucose tolerance and plasma insulin excursion in response to an i.p and oral glucose challenge (after the 28 day treatment period): significantly improved | HDL-cholesterol levels compared to the lean control and high fat fed mice (once daily): significantly increased | Bodyweight reduction [1]: approximately 7% | Day of study at which bodyweight was significantly decreased [1]: 16 days | Day of study at which circulating blood glucose began to be significantly reduced and plasma insulin increased [1]: 13 days | Day of study at which food intake was significantly reduced [1]: 8 days | LDL-cholesterol levels compared to the high fat fed controls (once daily, Friedewald equation): significantly lowered | Plasma triglyceride levels (once daily, high-fat fed mice): significantly lower | Total cholesterol levels in plasma (once daily, high-fat fed mice): significantly lower
